Laboratory results from patent US7157256B2, “Method for producing para-hydroxystyrene and other multifunctional aromatic compounds using two-phase extractive fermentation” (E. I. du Pont de Nemours and Company, priority 2003, dated 2007).
Values joined by “and” are separate entries in the source; they are usually repeats but may differ in a detail not shown here. Identical values can stand only once.

Columns and labels:
E. coli WWQ51.1 = assay: Growth of E. coli with added pHS in two-phase fermentation; assay type: cell-based; details: 0.5 mL pHS (10% w/v) added; 20 mL 2-Undecanone; IPTG 0.5 mM
Procedure: The strain used in this study was E. coli WWQ51.1, as described in Example 3. The conditions were similar to those described in Example 3. Eight test cultures were inoculated; six contained 20 mL of 2-undecanone, the other two contained 20 mL of 1-undecanol. A 10% w/v solution of pHS in propylene glycol (0.5 mL), obtained from Sigma-Aldrich, Milwaukee, Wis., was added to two of the cultures containing 2-undecanone, as specified in Table 7.
The cultures were incubated in 250 mL baffled flasks at 35° C. and 300 rpm for 24 h in an incubator shaker. After this time, a sample of the aqueous phase was withdrawn and the pH, OD550, and the concentration of the fermentation products were measured, as described supra. The organic phase was also sampled and the concentration of CA and pHS were determined using HPLC, as described supra.

[1] = Partition of pHS between 2-undecanone and aqueous medium, 10 L fermentor; assay type: physicochemical; details: 2-undecanone/aqueous
Procedure: The pre-seed culture was E. coli strain WWQ51.1, as described in Example 3, frozen in glycerol. This culture was used to inoculate 500 mL of the seed medium consisting of KH2PO4 (0.15 g/L), Na2HPO4 (0.35 g/L), (NH4)2SO4 (3 g/L), MgSO4.7H2O (0.3 g/L), yeast extract (0.5 g/L), and MOPS (15.7 g/L). The medium was adjusted to pH 6.8 and steam sterilized. Then, glucose (10 g/L), kanamycin (50 mg/L) and ampicillin (100 mg/L) were aseptically added to give the final concentration given in parentheses. The seed culture was inoculated and grown in a 2 L flask incubated at 35° C. and 300 rpm for 12 h in an incubator shaker.
The fermentor medium consisted of: 6.2 L of H2O, 1.4 g KH2PO4, 3.5 g MgSO4.7H2O, 7 g (NH4)2SO4, 7 mL of Mazu DF204 Defoamer, obtained from BASF Corp. (Mt. Olive, N.J.), 7 mg thiamine, and 3 L of 2-undecanone, obtained from Bedoukian Research, Inc. (Danbury, Conn.). After sterilization of the medium, 250 g of a 50% w/v glucose solution and 140 mL of the trace element solution (as described in Example 1), were aseptically added. The pH of the medium was adjusted to 6.5. The final total volume of the fermentation medium was 10 L.
The seed culture was used to inoculate the fermentor medium in a 14 L Braun Fermentor, Biostat C. B. (Braun Biotech International, Melesungen, Germany). The fermentation conditions were as follows: temperature: 35° C., stir rate: 400–600 rpm, airflow: 2–16 SLPM, DO2: 25%, and pressure: 1 bar. Glucose was fed into the fermentor starting at a rate of 0.28 g/min. This rate was reduced when the glucose concentration rose above 2 g/L. IPTG (8 mL of a 0.5 M solution) was added when the glucose concentration fell below 4 g/L.
Samples of the aqueous and organic phases were collected at various times. The glucose, pHCA, CA, phenylalanine, tyrosine, and pHS concentrations, and the OD550 in the aqueous phase were determined, as described supra. The pHS concentration in the organic phase was measured using HPLC, as described supra.

[2] = test system: P. putida strain S12 (ATCC No. 700801); assay: Effect of pHS on the growth of Pseudomonas putida; assay type: cell-based; details: for Growth Rate, %: percentage of growth without pHS
Procedure: This study was done using P. putida strain S12 (ATCC No. 700801), obtained from the American Type Culture Collection. This P. putida strain was grown at 30° C. in 20 mL of LB medium containing 0.25% glucose and 10 mM MgSO4 in a 125 mL baffled flask until stationary phase was achieved. Aliquots from this stationary phase culture were plated on LB agar plates containing 0.25% glucose, 10 mM MgSO4, and 1 g/L pHS, and incubated at 30° C. for several days. Colonies from these plates were streaked on identical plates and grown as described above. An individual colony from these plates was used to inoculate 20 mL of liquid LB medium containing 0.5% glucose, 10 mM MgSO4 and 1 g/L pHS. This culture was grown in a 125 mL baffled flask at 30° C. and 200 rpm in an incubator shaker until stationary phase was achieved. These stationary phase cells (0.5 mL) were added to 20 mL of a test medium consisting of LB medium, 0.5% glucose, 10 mM MgSO4 and either 0, 1.0, or 1.25 g/L pHS. These cultures were grown in 125 mL baffled flasks at 30° C. and 200 rpm in an incubator shaker. Cell growth in these cultures was monitored by taking aliquots, diluting them with an equal volume of 1,2-propanediol, and measuring the OD at 600 nm. These OD measurements were used to calculate the doubling time and growth rate as a percentage of growth observed in the test medium without pHS.

C=Cc1ccc(O)cc1 [pHS, para-hydroxystyrene]
OD550 24 h (E. coli WWQ51.1): 15.7 and 12.5
Partition coeff. ([1]; 13.5 h): 19
Partition coeff. ([1]; 15.9 h): 14
Partition coeff. ([1]; 18.3 h): 19
Partition coeff. ([1]; 20.2 h): 27
Partition coeff. ([1]; 23.3 h): 33
Partition coeff. ([1]; 25.5 h): 45
Partition coeff. ([1]; 27.3 h): 40
Partition coeff. ([1]; 33.6 h): 19
Partition coeff. ([1]; 36.8 h): 19
Partition coeff. ([1]; 39.3 h): 21
Partition coeff. ([1]; 57.1 h): 17
Partition coeff. ([1]; 59.4 h): 22
Partition coeff. ([1]; 63.8 h): 27
Doubling Time ([2]; pHS 1.0 g/L, pHS-adapted cells, LB medium, 30° C.): 118 min
Growth Rate, % ([2]; pHS 1.0 g/L): 85%
Doubling Time ([2]; pHS 1.25 g/L): 111 min
Growth Rate, % ([2]; pHS 1.25 g/L): 90%
